From US20090291887A1, “Proteins of the SDF-1-Family for the Manufacturing of a Medicament” (priority 2006, published 2009)

What was measured:
CST-lesioned adult rats = experiment: Rat model of spinal cord transection, CST axon sprouting (BDA tracing); type: in vivo
Protocol: The dura was opened at the thoracic level, and the vertebrae Th8 and Th9 were removed. The dorsal CST, dorsal columns and central canal were transected using a Scouten wire knife (Bilaney, Germany). Following the surgery, a silicon tube catheter was placed in the subdural space at 1 mm caudal to the lesion, and was connected to a mini-osmotic pump (Alzet) containing 200 μl of either SDF-1a/CXCL12 (10 μM in PBS) or Tris buffer. After the pump was fixed in place, the dura and overlying tissue were sutured, and the animals were allowed to recover. Application of either SDF-1a/CXCL12 or Tris buffer was carried out at a flow rate of 1 μl/h over a time period of 7 days. One week after lesion, the pump was removed in a second surgery.
A total volume of 2.3 μl biotinylated dextrane amine, BDA, (10%, Molecular Probes) was stereotactically injected into both hemispheres of the sensorimotor cortex. […] Briefly, animals were transcardially perfused with 40% PFA. The spinal cord was removed, postfixed in 4% PFA, and cryoprotected in sucrose (30%, Sigma) for 3-5 days. Spinal cord samples were shock frozen in methyl butane and cut into 20 μm thick sagittal cryostat slices. Sections were collected onto Histobond coated glass slides (Menzel, Germany). […] Briefly, sections were washed in PBS followed by incubation with avidin-Oregon (1:1000, in PBS) at 4° C. over night. […]

DRG neurons = experiment: Myelin-inhibition assay (neurite growth of DRG neurons on laminin/myelin); type: cell-based, rat
Protocol: Spinal neurons from the dorsal root ganglia (DRG) of young rats (day 6 postnatal) were plated in parallel on culture substrates coated with either poly-D-lysine (PDL)/laminin (13 μg/ml) or PDL/laminin (13 μg/ml)+myelin (200 ng/culture). The myelin preparation has been obtained from rat brain by biochemical fractionation and employed as a suspension for coating the culture dishes.
The images shown in FIGS. 1-3 were recorded by immunofluorescence microscopy with PAM (panaxonal marker/neurofilament) antibody, and the visualization was effected by fluorescent dye (Alexa).

[1] = test system: Ser-133 phosphorylated CREB in DRG neurons; experiment: PhosphoCREB assay; type: cell-based, rat; details: P6 DRG neurons; 200 ng/ml; versus untreated cultures (FIG. 5)
Protocol: Determination of Ser-133 phosphorylated CREB was performed on glass coverslips coated with PDL (1 mg/ml, Sigma) and laminin (13 μg/ml, Sigma). Dissociated DRGs were plated at a density of 5×10^4 cells/cm2 and incubated in DMEM containing 10% fetal bovine serum, nerve growth factor-2.5S, penicilline/streptomycine, and 5′-fluoro-2′-desoxyuridine for 24 h. Cells were stimulated by application of either 200 ng/ml SDF-1a/CXCL12 or 6 μM forskolin (Sigma), respectively, for 1-120 min. Samples were fixed with […] and stained for phophoCREB. Nuclei of P6 DRG neurons were stained with DAPI. For quantitative analysis of phosphoCREB-immunoreactivity, 30 pictures per coverslip were taken randomly at 20× magnification, and the number of neurons displaying phosphoCREB-positive nuclei as well as the total number of neurons were determined.

## SDF-1α
CST-lesioned adult rats; SDF-1a infusion, none out of three Tris buffer-infused rats
  animals that displayed extensive sprouting: Two out of three
CST-lesioned adult rats; subdural infusion by mini-osmotic pump, 10 μM, 1 μl/h, 7 days, versus Tris buffer (FIG. 6)
  sprouting of BDA-labelled CST axons within the proximal stump: enhanced sprouting
DRG neurons; DRG neurons on PDL/laminin + myelin, SDF-1 Alpha 200 ng/ml (FIG. 3)
  myelin-associated inhibition of neurite growth: essentially neutralized
DRG neurons; FIG. 4, dose dependence
  neutralization of myelin inhibition, quantitative evaluation: dose-dependent neutralization
DRG neurons; concentration of 500 ng of SDF-1/ml
  myelin-induced inhibition of the neurite growth of DRG neurons in vitro: neutralized completely
[1]
  proportion of nuclei displaying phosphoCREB-immunoreactivity: significantly increased
